Data: the NIST ThermoML archive (doi:10.1016/j.jct.2004.04.004)

Test: xn = mol fraction of the nth substance listed
Settings: 101.3 kPa, Liquid

Cc1ccccc1C [1,2-dimethylbenzene] + C[S+](C)[O-]
Settings	mass density [kg/m3]
293.15 K, x1 = 0.0858	1070.35
293.15 K, x1 = 0.1359	1054.5
293.15 K, x1 = 0.1957	1036.82
293.15 K, x1 = 0.2589	1019.38
293.15 K, x1 = 0.3283	1001.63
293.15 K, x1 = 0.3947	985.85
293.15 K, x1 = 0.4732	968.58
293.15 K, x1 = 0.5482	953.27
293.15 K, x1 = 0.6132	940.87
293.15 K, x1 = 0.6648	931.53
293.15 K, x1 = 0.7329	919.84
293.15 K, x1 = 0.8012	908.78
293.15 K, x1 = 0.8732	897.78
293.15 K, x1 = 0.9198	891.02
303.15 K, x1 = 0.0923	1059.85
303.15 K, x1 = 0.153	1040.84
303.15 K, x1 = 0.229	1018.94
303.15 K, x1 = 0.3013	999.82
303.15 K, x1 = 0.3539	986.84
303.15 K, x1 = 0.439	967.38
303.15 K, x1 = 0.4938	955.72
303.15 K, x1 = 0.5539	943.64
303.15 K, x1 = 0.615	932.03
303.15 K, x1 = 0.6849	919.56
303.15 K, x1 = 0.7537	907.99
303.15 K, x1 = 0.8327	895.54
303.15 K, x1 = 0.9123	883.82
313.15 K, x1 = 0.0794	1055.53
313.15 K, x1 = 0.1246	1040.99
313.15 K, x1 = 0.1936	1020.26
313.15 K, x1 = 0.2638	1000.86
313.15 K, x1 = 0.3248	985.24
313.15 K, x1 = 0.4058	966.09
313.15 K, x1 = 0.5732	931.27
313.15 K, x1 = 0.649	917.29
313.15 K, x1 = 0.7044	907.66
313.15 K, x1 = 0.7724	896.49
313.15 K, x1 = 0.8355	886.69
313.15 K, x1 = 0.8943	878.03
313.15 K, x1 = 0.9234	873.9
323.15 K, x1 = 0.0833	1045.74
323.15 K, x1 = 0.1489	1024.89
323.15 K, x1 = 0.1948	1011.29
323.15 K, x1 = 0.2587	993.57
323.15 K, x1 = 0.3278	975.84
323.15 K, x1 = 0.4039	957.84
323.15 K, x1 = 0.4632	944.82
323.15 K, x1 = 0.5399	929.1
323.15 K, x1 = 0.6012	917.37
323.15 K, x1 = 0.664	906.05
323.15 K, x1 = 0.7576	890.35
323.15 K, x1 = 0.8148	881.37
323.15 K, x1 = 0.8833	871.21
323.15 K, x1 = 0.9347	863.97
333.15 K, x1 = 0.0795	1038.47
333.15 K, x1 = 0.1399	1019.08
333.15 K, x1 = 0.2048	999.81
333.15 K, x1 = 0.2598	984.62
333.15 K, x1 = 0.3189	969.38
333.15 K, x1 = 0.3832	953.94
333.15 K, x1 = 0.4539	938.16
333.15 K, x1 = 0.5138	925.7
333.15 K, x1 = 0.5822	912.36
333.15 K, x1 = 0.6427	901.28
333.15 K, x1 = 0.7038	890.71
333.15 K, x1 = 0.7638	880.89
333.15 K, x1 = 0.8247	871.45
333.15 K, x1 = 0.9138	858.53
343.15 K, x1 = 0.0698	1033.25
343.15 K, x1 = 0.1587	1004.79
343.15 K, x1 = 0.2184	987.38
343.15 K, x1 = 0.275	972.02
343.15 K, x1 = 0.3576	951.35
343.15 K, x1 = 0.4247	935.94
343.15 K, x1 = 0.4933	921.29
343.15 K, x1 = 0.5539	909.2
343.15 K, x1 = 0.6349	894.13
343.15 K, x1 = 0.7038	882.21
343.15 K, x1 = 0.7971	867.23
343.15 K, x1 = 0.8621	857.5
343.15 K, x1 = 0.9324	847.62
353.15 K, x1 = 0.0431	1034
353.15 K, x1 = 0.1383	1002.49
353.15 K, x1 = 0.2043	982.8
353.15 K, x1 = 0.2748	963.47
353.15 K, x1 = 0.3534	943.75
353.15 K, x1 = 0.4148	929.55
353.15 K, x1 = 0.4829	914.87
353.15 K, x1 = 0.5457	902.24
353.15 K, x1 = 0.6198	888.33
353.15 K, x1 = 0.6831	877.21
353.15 K, x1 = 0.7598	864.61
353.15 K, x1 = 0.8244	854.67
353.15 K, x1 = 0.8846	845.91
353.15 K, x1 = 0.9423	837.96

Cc1cccc(C)c1 [1,3-dimethylbenzene] + C[S+](C)[O-]
Settings	mass density [kg/m3]
293.15 K, x1 = 0.0679	1074.3
293.15 K, x1 = 0.1489	1046.5
293.15 K, x1 = 0.2044	1028.97
293.15 K, x1 = 0.2613	1012.13
293.15 K, x1 = 0.3487	988.35
293.15 K, x1 = 0.3975	976.03
293.15 K, x1 = 0.4578	961.7
293.15 K, x1 = 0.5244	946.87
293.15 K, x1 = 0.5896	933.28
293.15 K, x1 = 0.6597	919.61
293.15 K, x1 = 0.7393	905.13
293.15 K, x1 = 0.8218	891.15
293.15 K, x1 = 0.8835	881.33
293.15 K, x1 = 0.9412	872.62
303.15 K, x1 = 0.0735	1063.89
303.15 K, x1 = 0.1579	1035.01
303.15 K, x1 = 0.2387	1010.01
303.15 K, x1 = 0.3087	990.22
303.15 K, x1 = 0.3754	972.78
303.15 K, x1 = 0.4147	963.09
303.15 K, x1 = 0.4892	945.8
303.15 K, x1 = 0.5539	931.86
303.15 K, x1 = 0.6209	918.33
303.15 K, x1 = 0.6902	905.23
303.15 K, x1 = 0.7532	894.02
303.15 K, x1 = 0.8149	883.65
303.15 K, x1 = 0.8687	875.05
303.15 K, x1 = 0.9373	864.64
313.15 K, x1 = 0.0854	1051.04
313.15 K, x1 = 0.1527	1028.01
313.15 K, x1 = 0.2357	1002.14
313.15 K, x1 = 0.2978	984.4
313.15 K, x1 = 0.3576	968.48
313.15 K, x1 = 0.4077	955.97
313.15 K, x1 = 0.4676	941.86
313.15 K, x1 = 0.5239	929.42
313.15 K, x1 = 0.5823	917.24
313.15 K, x1 = 0.6521	903.59
313.15 K, x1 = 0.7389	887.82
313.15 K, x1 = 0.7912	878.91
313.15 K, x1 = 0.8513	869.17
313.15 K, x1 = 0.9327	856.77
323.15 K, x1 = 0.0746	1046.35
323.15 K, x1 = 0.1647	1015.41
323.15 K, x1 = 0.2138	999.97
323.15 K, x1 = 0.2847	979.25
323.15 K, x1 = 0.3579	959.6
323.15 K, x1 = 0.4135	945.75
323.15 K, x1 = 0.4724	931.98
323.15 K, x1 = 0.5249	920.42
323.15 K, x1 = 0.6038	904.17
323.15 K, x1 = 0.6739	890.78
323.15 K, x1 = 0.7598	875.54
323.15 K, x1 = 0.8133	866.63
323.15 K, x1 = 0.8732	857.15
323.15 K, x1 = 0.9239	849.51
333.15 K, x1 = 0.0673	1040.47
333.15 K, x1 = 0.1568	1009.3
333.15 K, x1 = 0.2249	987.86
333.15 K, x1 = 0.2935	968.02
333.15 K, x1 = 0.3687	948.04
333.15 K, x1 = 0.4312	932.71
333.15 K, x1 = 0.4921	918.76
333.15 K, x1 = 0.5638	903.47
333.15 K, x1 = 0.6304	890.23
333.15 K, x1 = 0.693	878.57
333.15 K, x1 = 0.7563	867.46
333.15 K, x1 = 0.8137	857.93
333.15 K, x1 = 0.8846	846.82
333.15 K, x1 = 0.9355	839.26
343.15 K, x1 = 0.0647	1032.84
343.15 K, x1 = 0.1491	1003.11
343.15 K, x1 = 0.2139	982.42
343.15 K, x1 = 0.2749	964.42
343.15 K, x1 = 0.3588	941.76
343.15 K, x1 = 0.4395	921.95
343.15 K, x1 = 0.5023	907.73
343.15 K, x1 = 0.5539	896.74
343.15 K, x1 = 0.6135	884.76
343.15 K, x1 = 0.675	873.12
343.15 K, x1 = 0.7523	859.44
343.15 K, x1 = 0.8132	849.34
343.15 K, x1 = 0.8643	841.29
343.15 K, x1 = 0.9247	832.25
353.15 K, x1 = 0.0734	1020.97
353.15 K, x1 = 0.1359	998.8
353.15 K, x1 = 0.1844	982.84
353.15 K, x1 = 0.2258	970
353.15 K, x1 = 0.2844	952.95
353.15 K, x1 = 0.3535	934.34
353.15 K, x1 = 0.4241	916.83
353.15 K, x1 = 0.4798	903.97
353.15 K, x1 = 0.5323	892.53
353.15 K, x1 = 0.6042	877.86
353.15 K, x1 = 0.6724	864.89
353.15 K, x1 = 0.7539	850.47
353.15 K, x1 = 0.8375	836.8
353.15 K, x1 = 0.9144	825.15
